Measured values taken from ChEMBL document CHEMBL1152560, “Substituted 2-arylbenzothiazoles as kinase inhibitors: hit-to-lead optimization” (Bioorg Med Chem, 2009).

How the values were obtained:
[1] = tested on: Epidermal growth factor receptor (Homo sapiens), P00533 [L858R,T790M]; test: Residual activity of EGFR T790M/L858R at 1 uM by microplate scintillation counting
[2] = biological target: Insulin-like growth factor 1 receptor (Homo sapiens) (UniProt P08069); test: Residual activity of IGF1R at 1 uM by microplate scintillation counting
[3] = biological target: T1, Serine/threonine-protein kinase Nek2 (Homo sapiens) (UniProt P51955); test: Residual activity of NEK2 at 1 uM by microplate scintillation counting
T1 sequence (whole entry): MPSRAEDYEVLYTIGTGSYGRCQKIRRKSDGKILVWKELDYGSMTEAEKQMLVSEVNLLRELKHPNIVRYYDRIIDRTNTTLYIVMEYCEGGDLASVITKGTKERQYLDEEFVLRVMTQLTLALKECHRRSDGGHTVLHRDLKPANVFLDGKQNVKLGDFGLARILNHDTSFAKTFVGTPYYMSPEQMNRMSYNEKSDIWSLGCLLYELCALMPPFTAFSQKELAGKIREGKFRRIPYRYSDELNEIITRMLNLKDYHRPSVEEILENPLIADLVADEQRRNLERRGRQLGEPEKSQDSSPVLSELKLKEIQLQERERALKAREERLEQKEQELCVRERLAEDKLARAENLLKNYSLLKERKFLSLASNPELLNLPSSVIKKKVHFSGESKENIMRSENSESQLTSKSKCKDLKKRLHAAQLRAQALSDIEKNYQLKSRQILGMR

[4] = biological target: Ribosomal protein S6 kinase alpha-1 (Homo sapiens) (UniProt Q15418); test: Residual activity of RPS6KA1 at 1 uM by microplate scintillation counting
[5] = biological target: Ribosomal protein S6 kinase beta-2 (Homo sapiens) (UniProt Q9UBS0); test: Residual activity of S6Kbeta at 1 uM by microplate scintillation counting
[6] = biological target: Macrophage colony-stimulating factor 1 receptor (Homo sapiens) (UniProt P07333); test: Residual activity of CSF1R at 10 uM by microplate scintillation counting
[7] = biological target: T2, Inhibitor of nuclear factor kappa-B kinase subunit epsilon (Homo sapiens) (UniProt Q14164); test: Residual activity of IKKepsilon at 10 uM by microplate scintillation counting
T2 sequence (whole entry): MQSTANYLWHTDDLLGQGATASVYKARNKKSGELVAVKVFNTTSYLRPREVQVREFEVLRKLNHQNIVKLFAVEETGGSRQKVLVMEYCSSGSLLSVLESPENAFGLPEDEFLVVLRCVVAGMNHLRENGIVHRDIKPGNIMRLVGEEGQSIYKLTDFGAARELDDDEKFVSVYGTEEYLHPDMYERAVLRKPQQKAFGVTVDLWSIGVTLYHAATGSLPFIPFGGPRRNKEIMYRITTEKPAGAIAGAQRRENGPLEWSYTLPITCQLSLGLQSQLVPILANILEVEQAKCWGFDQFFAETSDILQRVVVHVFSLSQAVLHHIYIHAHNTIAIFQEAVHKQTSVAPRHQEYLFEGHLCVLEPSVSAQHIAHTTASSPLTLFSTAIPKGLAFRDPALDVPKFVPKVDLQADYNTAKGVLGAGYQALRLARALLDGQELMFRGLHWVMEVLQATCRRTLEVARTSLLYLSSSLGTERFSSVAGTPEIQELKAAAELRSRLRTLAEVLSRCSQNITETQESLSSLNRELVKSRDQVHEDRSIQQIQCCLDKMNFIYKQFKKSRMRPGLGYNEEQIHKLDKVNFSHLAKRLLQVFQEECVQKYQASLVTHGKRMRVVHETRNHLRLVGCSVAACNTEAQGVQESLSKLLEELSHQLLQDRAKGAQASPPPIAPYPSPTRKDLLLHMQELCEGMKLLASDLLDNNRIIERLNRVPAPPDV

[8] = biological target: Epidermal growth factor receptor (Homo sapiens, UniProt P00533); test: Residual activity of wild type EGF-R at 0.1 uM by microplate scintillation counting
[9] = biological target: T3, Serine/threonine-protein kinase D3 (Homo sapiens) (UniProt O94806); test: Residual activity of PKCnu at 10 uM by microplate scintillation counting
T3 sequence (whole entry): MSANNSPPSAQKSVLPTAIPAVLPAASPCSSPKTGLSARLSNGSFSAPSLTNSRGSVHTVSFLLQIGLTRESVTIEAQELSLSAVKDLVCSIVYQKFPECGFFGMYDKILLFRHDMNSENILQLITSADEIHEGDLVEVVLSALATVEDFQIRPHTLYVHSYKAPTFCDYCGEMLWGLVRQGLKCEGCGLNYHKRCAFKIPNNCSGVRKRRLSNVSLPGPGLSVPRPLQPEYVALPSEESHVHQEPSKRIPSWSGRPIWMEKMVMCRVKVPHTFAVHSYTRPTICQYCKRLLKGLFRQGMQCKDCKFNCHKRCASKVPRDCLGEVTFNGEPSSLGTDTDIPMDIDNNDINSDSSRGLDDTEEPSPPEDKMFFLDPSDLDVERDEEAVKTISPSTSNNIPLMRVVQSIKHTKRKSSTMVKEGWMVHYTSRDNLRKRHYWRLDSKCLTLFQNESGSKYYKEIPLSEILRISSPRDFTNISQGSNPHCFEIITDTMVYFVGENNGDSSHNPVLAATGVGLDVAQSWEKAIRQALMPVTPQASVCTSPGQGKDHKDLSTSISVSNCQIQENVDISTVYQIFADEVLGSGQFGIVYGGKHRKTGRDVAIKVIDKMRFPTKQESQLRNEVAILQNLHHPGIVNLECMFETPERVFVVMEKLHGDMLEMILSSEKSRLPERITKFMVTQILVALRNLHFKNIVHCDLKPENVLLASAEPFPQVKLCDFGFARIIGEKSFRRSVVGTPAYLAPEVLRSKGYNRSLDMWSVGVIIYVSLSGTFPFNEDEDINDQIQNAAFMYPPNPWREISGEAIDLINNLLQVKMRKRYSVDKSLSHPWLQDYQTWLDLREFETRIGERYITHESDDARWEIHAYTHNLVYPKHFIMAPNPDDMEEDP

[10] = tested on: RAF proto-oncogene serine/threonine-protein kinase (Homo sapiens), P04049 [Y340D,Y341D]; test: Residual activity of RAF1 Y340D/Y341D mutant at 0.1 uM by microplate scintillation counting
[11] = biological target: Macrophage-stimulating protein receptor (Homo sapiens) (UniProt Q04912); test: Residual activity of RON at 0.1 uM by microplate scintillation counting
[12] = biological target: Tyrosine-protein kinase Yes (Homo sapiens) (UniProt P07947); test: Residual activity of YES at 10 uM by microplate scintillation counting

Chain of Insulin-like growth factor 1 receptor (Homo sapiens) (P08069 31-736 limits assumed): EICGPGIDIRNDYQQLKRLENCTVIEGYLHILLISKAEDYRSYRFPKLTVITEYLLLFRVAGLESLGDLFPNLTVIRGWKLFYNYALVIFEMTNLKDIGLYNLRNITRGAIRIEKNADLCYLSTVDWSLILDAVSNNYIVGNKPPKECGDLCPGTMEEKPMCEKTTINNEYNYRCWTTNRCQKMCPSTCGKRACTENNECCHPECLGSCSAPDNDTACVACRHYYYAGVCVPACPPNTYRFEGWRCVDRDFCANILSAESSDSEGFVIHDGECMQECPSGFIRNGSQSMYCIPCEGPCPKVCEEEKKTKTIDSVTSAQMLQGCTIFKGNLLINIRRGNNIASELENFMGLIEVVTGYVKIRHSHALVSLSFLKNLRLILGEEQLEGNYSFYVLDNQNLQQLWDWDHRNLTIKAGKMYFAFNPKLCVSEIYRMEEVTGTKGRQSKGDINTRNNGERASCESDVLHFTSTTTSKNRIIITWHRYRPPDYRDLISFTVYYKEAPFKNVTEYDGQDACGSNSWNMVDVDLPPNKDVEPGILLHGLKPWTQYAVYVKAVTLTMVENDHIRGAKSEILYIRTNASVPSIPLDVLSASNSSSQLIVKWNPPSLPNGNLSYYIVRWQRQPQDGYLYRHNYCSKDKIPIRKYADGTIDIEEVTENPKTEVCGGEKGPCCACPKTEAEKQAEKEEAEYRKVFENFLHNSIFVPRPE
Chain of Insulin-like growth factor 1 receptor (Homo sapiens) (P08069 741-1367 limits assumed): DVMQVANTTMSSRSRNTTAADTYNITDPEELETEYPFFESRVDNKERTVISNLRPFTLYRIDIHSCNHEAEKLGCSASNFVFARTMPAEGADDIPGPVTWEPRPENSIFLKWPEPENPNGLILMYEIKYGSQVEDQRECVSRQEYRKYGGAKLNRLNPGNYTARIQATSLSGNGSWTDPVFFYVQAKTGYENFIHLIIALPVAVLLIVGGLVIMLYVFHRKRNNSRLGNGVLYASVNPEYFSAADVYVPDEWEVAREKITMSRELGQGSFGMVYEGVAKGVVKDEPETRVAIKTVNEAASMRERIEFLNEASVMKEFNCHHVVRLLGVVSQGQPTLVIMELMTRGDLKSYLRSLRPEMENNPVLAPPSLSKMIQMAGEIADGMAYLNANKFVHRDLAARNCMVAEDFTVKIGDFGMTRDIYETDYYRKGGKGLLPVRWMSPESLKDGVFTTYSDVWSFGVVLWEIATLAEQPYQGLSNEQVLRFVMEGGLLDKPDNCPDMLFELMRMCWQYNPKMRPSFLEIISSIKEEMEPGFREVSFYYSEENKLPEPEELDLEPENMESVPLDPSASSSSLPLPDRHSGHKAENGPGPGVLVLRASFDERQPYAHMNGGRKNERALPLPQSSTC
Chain of Ribosomal protein S6 kinase beta-2 (Homo sapiens) (Q9UBS0 whole entry): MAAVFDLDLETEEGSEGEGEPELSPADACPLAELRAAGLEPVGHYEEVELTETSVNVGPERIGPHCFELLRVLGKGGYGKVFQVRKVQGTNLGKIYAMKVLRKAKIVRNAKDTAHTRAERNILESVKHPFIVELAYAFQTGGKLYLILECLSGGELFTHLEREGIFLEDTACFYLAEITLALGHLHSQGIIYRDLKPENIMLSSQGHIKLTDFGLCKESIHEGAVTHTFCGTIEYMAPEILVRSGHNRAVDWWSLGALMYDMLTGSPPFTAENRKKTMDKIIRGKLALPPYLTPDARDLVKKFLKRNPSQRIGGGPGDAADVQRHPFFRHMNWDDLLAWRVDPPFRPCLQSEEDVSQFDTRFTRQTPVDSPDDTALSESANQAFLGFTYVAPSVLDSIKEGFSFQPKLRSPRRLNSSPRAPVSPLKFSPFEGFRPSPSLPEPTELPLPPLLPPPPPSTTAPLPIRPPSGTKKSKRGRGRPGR
Chain of Ribosomal protein S6 kinase alpha-1 (Homo sapiens) (Q15418 whole entry): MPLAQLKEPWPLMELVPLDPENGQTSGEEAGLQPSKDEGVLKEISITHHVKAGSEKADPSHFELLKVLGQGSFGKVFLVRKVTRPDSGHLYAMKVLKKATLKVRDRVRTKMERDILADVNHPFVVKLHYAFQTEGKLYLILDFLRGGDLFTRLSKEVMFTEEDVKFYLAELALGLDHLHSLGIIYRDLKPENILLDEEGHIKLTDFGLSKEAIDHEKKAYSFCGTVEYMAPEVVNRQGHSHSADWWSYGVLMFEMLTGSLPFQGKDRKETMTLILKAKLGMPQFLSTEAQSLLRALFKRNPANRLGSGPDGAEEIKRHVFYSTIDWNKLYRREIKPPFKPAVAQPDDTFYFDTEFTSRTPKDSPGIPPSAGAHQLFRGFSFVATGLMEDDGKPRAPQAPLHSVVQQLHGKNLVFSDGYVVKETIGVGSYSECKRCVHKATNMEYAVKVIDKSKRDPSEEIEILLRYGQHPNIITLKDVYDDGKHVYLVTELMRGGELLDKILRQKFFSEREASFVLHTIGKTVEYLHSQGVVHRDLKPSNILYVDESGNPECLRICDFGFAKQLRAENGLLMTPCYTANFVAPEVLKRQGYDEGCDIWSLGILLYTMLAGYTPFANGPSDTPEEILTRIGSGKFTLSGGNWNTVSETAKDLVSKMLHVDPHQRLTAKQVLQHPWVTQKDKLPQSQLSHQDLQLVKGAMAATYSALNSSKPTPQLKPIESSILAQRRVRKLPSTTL
Chain of Macrophage colony-stimulating factor 1 receptor (Homo sapiens) (P07333 whole entry): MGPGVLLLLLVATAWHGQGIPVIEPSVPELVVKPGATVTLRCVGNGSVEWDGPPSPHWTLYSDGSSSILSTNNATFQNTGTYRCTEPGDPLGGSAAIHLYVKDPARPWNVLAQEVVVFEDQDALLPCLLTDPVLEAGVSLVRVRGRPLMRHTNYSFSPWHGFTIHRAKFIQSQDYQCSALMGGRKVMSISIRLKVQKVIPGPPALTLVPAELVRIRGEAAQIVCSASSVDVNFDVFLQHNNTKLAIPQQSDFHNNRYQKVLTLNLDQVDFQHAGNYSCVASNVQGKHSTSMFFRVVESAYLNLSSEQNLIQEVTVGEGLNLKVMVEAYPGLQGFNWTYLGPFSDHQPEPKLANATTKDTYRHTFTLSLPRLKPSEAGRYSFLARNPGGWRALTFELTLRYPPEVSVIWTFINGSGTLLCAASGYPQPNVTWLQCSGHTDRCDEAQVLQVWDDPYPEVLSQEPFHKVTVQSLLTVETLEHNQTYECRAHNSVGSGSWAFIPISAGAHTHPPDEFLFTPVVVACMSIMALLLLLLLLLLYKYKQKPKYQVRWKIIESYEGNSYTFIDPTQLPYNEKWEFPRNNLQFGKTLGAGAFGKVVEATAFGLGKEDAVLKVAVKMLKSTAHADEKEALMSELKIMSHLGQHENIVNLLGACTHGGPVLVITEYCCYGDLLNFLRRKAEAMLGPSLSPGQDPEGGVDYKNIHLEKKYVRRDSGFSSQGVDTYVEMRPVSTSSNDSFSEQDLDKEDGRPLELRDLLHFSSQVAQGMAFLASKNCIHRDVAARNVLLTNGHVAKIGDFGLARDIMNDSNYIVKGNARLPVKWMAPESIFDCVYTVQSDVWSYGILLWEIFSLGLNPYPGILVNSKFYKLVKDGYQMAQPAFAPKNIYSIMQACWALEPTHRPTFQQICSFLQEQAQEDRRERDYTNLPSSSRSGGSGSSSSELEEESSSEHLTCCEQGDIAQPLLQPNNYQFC
Chain of Macrophage-stimulating protein receptor (Homo sapiens) (Q04912 25-304 limits assumed): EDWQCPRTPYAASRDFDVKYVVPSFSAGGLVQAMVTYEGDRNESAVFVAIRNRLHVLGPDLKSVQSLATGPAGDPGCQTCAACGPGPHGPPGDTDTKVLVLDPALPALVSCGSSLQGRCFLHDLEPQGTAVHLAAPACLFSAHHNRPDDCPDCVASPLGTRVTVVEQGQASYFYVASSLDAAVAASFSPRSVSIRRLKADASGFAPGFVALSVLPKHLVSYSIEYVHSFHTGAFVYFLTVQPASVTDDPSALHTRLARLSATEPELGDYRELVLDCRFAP
Chain of Macrophage-stimulating protein receptor (Homo sapiens) (Q04912 310-1400 limits assumed): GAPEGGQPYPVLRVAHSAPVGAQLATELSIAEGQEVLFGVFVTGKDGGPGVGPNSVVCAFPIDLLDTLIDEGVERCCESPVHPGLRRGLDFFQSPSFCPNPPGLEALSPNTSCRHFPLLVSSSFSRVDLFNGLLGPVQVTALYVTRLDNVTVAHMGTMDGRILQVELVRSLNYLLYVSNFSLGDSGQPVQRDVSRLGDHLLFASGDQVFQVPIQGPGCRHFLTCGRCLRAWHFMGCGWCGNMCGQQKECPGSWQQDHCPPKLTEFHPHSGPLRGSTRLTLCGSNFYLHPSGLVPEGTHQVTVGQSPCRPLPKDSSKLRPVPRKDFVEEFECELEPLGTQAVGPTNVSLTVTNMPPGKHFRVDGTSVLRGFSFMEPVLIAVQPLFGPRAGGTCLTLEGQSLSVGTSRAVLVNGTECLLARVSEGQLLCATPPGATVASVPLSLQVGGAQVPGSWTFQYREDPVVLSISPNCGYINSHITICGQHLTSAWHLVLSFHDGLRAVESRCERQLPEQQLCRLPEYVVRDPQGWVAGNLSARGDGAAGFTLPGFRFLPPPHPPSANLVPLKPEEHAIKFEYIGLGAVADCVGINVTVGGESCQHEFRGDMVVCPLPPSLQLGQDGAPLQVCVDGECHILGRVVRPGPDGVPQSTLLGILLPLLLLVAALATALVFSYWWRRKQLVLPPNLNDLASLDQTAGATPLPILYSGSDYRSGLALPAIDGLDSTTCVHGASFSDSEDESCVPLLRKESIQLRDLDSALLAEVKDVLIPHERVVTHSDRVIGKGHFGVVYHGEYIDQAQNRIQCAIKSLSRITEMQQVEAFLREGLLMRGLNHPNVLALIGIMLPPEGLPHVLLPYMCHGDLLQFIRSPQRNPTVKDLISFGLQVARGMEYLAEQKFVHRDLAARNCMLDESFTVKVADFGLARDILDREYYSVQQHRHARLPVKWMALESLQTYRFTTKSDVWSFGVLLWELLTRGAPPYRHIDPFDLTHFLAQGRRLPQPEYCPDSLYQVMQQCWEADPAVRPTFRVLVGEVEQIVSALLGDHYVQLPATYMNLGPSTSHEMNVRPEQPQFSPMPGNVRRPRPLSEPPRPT

residual activity [1] [%]	residual activity [2] [%]	residual activity [3] [%]	residual activity [4] [%]	residual activity [5] [%]	residual activity [6] [%]	residual activity [7] [%]	residual activity [8] [%]	residual activity [9] [%]	residual activity [10] [%]	residual activity [11] [%]	residual activity [12] [%]	SMILES
100	100	89	74	54	131	99	95	82	95	90	101	COc1cc2c(Oc3ccc(-c4nc5ccccc5s4)cc3)ncnc2cc1OCCCN1CCCC1
103	100	81	78	56	127	101	94	52	114	74	55	COc1cc2c(Oc3ccc(-c4nc5ccccc5s4)cc3)ncnc2cc1OCCCN1CCN(C)CC1
99	115	89	88	41	55	76	100	50	100	72	14	COc1cc2c(Oc3ccc(-c4nc5ccccc5s4)cc3F)ncnc2cc1OCCCN1CCN(C)CC1
